Experimental data published in patent US9073858B2, “Methods of targeted drug development” (priority 2010, dated 2015).
Read-outs that look alike come from different tables or passages of the source.

Assays:
[1] = system: epithelial carcinoma A431 cell line; experiment: MTT Cell Proliferation Assay, A431 cell line; assay type: cell-based; details: for MTT-72 h A431/MDBK (ratio) / MTT (10 Point follow-up) ratio: value in brackets; for MTT-72 h A431/MDBK (ratio): numerically MDBK value over A431 value; for MTT (10 Point follow-up) ratio: numerically MDBK over A431
From the text: (§1) The following example describes the MTT Cell Proliferation Assay.
(§2) The MTT Cell Proliferation Assay is a colorimetric assay system that measures the reduction of the tetrazolium salt MTT (3-(4,5-dimethylthiazol-2-yl)-2,5-diphenyltetrazolium bromide) into insoluble formazan crystals, produced by the mitochondria of viable cells. […] The color can then be quantified by spectrophotometric means. Among the applications for the method are drug sensitivity, cytotoxicity, response to growth factors, and cell activation. The reduction of tetrazolium salts is now recognized as a safe, accurate alternative to radiometric testing.
(§3) Two replicates on each cell plate and 2 duplicate plates gave 4 individual replicates of each concentration, in each cell line. Concentrations were diluted in 100% DMSO from 25 mM stocks.
(§4) Twelve 96 well plates of each cell line were plated. Plating was done by dislodging cells as in passage protocol, counting on a hemocytometer, re-suspending in standard growth media, and plating using a multichannel pippetor.
(§5) 16 μl of 25 mM stock+34 μl DMSO=8 mM starting concentrations, and serial diluted as with test compounds in same plate. […] Two replicates of each concentrations was run on each cell plate. All compound addition and cell treatments were done using aseptic technique under a laminar flow aseptic hood.
(§6) Control: 0.5% DMSO in treatment media was used as the control.
(§7) MTT dye (Thiazolyl Blue Tetrazolium Bromide, Sigma cat # M5655) stock was prepared in bulk and stored at 4° C. for use: 5 mgs/ml sterile PDS, shielded from light. 4 ul of this stock per 100 uls treatment media per well was used.
(§8) Plates were incubated overnight prior to treatment, with treatment day=Day 0. Compound treatments were prepared prior to washing cells to minimize time cells were dry at room temperature after final aspiration. Compounds were diluted in 100% DMSO in 96 well polypropylene plates:40 μl 25 mM stock+10 μl DMSO=20 mM; 20 μl of 20 mM+30 μl DMSO=8 mM; 20 μl of 8 mM+30 μl DMSO=3.2 mM; 20 μl of 3.2 mM+30 μl DMSO=1.3 mM; 20 μl of 1.3 mM+30 μl DMSO=0.51 mM.
(§9) 5.0 μl/ml were added to treatment media, in sterile, 2.2 ml deep well plates=0.5% dmso final. Ten μl of each dmso concentration was added to 2.0 ml of treatment media and then mixed using a 1200 μl multichannel pipettor. Cell plates were treated from the deep well plates. Treatment media was standard growth media containing 0.5% FBS and standard additions. This reduced FBS concentration allowed for a slower growth rate in cells.
(§10) Media was aspirated from cell plates, and washed with 200 μl/well sterile PBS. Aspirated PBS wash, and cell plates were treated with 200 μl of compound/treatment media per well, and incubated at 37° C., 5% CO2 for 3 days.
(§11) Prior to harvesting, visual observations were made under an inverted microscope. Plates were harvested by: aspirating the growth media; adding back MTT dye/100 μl treatment media; and incubating plates at 37° C. for 1 hour. MTT dye was aspirated. 100 μl/well dmso was added, and then shaken on a Bellco plate shaker for 5 minutes, at 4.5 setting.
(§12) Plates were read in a Tecan Sunrize UV plate reader, at 560 nm. Settings: Read mode, Outside Normal 2 sec; Shake settle time 3 sec. Data is reported as % inhibition, calculated for individual plates using control values from that plate.

MDBK line = experiment: MTT Cell Proliferation Assay, MDBK line; assay type: cell-based, bovine
From the text: as §1, §2, §3, §4, §5, §6, §7, §8, §9, §10, §11, §12

EGFR = target: T1, EGFR (Homo sapiens, UniProt P00533); experiment: EGFR in-cell Western (ICW) screening protocol; assay type: cell-based; design: unit not given here; details: for ICW Screen: initial screen
T1 construct: endogenous in cells; host or cells: A431 cells (ATCC CRL-1555)
Experimental: The following example describes general EGFR in-cell Western (ICW) screening protocol.
Two cell plates were prepared for each compound plate.
Serum Starvation: The cells were serum starved prior to compound addition. […] The cell plates were incubated at 37° C./5% CO2 for 2 hours.
Prepared compound plates were stored at RT prior to use and at 4° C. long term.
Compound Dilution Plate Preparation: 250 μl of DMEM supplemented with 1 mg/ml BSA (Sigma A3059-10G) was added to the appropriate wells of a 96 well plate to prepare the compound dilution plates. Using a multichannel pipettor, 1.25 μl of compound from the compound plate was transferred into the compound dilution plate.
Compound Addition: The starve media was removed from the cell plates by aspiration. Using a multichannel pipettor, the compound dilution plates were mixed by pipetting up and down three times. 50 μl of mixed, diluted compound was added to each of two rows/columns on each of two cell plates. The cell plates with compound were incubated at 37° C./5% CO2 for 4 hours.
50 μl of 20 or 0 ng/ml EGF was added to the appropriate wells without the removal of compound. The compound and EGF were mixed by pipetting up and down three times.
The plates were incubated at RT for 20 min without shaking. The Fixation Solution was removed by aspiration and the plates washed four times with 200 μl each of Triton Wash Solution (1×PBS, Sigma P3813-10PK, and 0.1% Triton X-100, T8787-50ML) for 5 min with gentle shaking.
The block was removed by aspiration and 50 μl of diluted primary Ab mix was added. The plates were incubated at 4° C. overnight with gentle shaking. The plates were washed five times with 200 μl of PBST (1×PBS, Sigma P3813-10PK, and 0.1% Tween-20, Sigma P9416-50ML) for 5 min each with shaking. 50 μl of diluted secondary Ab mix was added and the plates incubated at RT for 1 h with shaking. The plates were washed 5× with 200 μl of PBST for 5 min each with shaking. One final wash with 200 μl of PBS (Sigma P3813-10PK) for 5 min with shaking was performed prior to scanning.
In some screening assays, the dilution of the secondary Ab conjugates was 1/800 rather than 1/1200.
Plate Scanning: The plates were scanned on an Odyssey Infrared Imaging System from LI-COR Biosciences. The focus offset was set at 3.5 mm and the scanning intensity set at 3 for the 700 channel and 7 for the 800 channel.
Data Analysis: The % of Maximum and % Inhibition values were calculated as follows. 700 Channel=signal for total EGFR (used to control for variation in cell number). 800 Channel=signal for phosphorylated EGFR. 800−EGF=basal level EGFR phosporylation+non-specific signal (no compound). 800+EGF=800−EGF+EGF dependent EGFR receptor phosphorylation (no compound). 700/800com=700 or 800 channel signals with compound. % Maximum={[(800com/700com)−(800−EGF/700−EGF)]/[(800+EGF/700+EGF)−(800−EGF/700−EGF)]}×100%. % Inhibition=100%−(% Maximum).

[2] = Homo sapiens, A-431, 72 h, 72 h, first value of A431/MDBK pair, read-out: MTT-72 h A431
[3] = Bos taurus, MDBK, 72 h, second value of A431/MDBK pair, read-out: MTT-72 h MDBK
[4] = Homo sapiens, A-431, 10 point follow-up, first value of pair, read-out: MTT (10 Point follow-up) A431
[5] = Bos taurus, MDBK, 10 point follow-up, second value of pair, read-out: MTT (10 Point follow-up) MDBK

T1 sequence (P00533 25-1210): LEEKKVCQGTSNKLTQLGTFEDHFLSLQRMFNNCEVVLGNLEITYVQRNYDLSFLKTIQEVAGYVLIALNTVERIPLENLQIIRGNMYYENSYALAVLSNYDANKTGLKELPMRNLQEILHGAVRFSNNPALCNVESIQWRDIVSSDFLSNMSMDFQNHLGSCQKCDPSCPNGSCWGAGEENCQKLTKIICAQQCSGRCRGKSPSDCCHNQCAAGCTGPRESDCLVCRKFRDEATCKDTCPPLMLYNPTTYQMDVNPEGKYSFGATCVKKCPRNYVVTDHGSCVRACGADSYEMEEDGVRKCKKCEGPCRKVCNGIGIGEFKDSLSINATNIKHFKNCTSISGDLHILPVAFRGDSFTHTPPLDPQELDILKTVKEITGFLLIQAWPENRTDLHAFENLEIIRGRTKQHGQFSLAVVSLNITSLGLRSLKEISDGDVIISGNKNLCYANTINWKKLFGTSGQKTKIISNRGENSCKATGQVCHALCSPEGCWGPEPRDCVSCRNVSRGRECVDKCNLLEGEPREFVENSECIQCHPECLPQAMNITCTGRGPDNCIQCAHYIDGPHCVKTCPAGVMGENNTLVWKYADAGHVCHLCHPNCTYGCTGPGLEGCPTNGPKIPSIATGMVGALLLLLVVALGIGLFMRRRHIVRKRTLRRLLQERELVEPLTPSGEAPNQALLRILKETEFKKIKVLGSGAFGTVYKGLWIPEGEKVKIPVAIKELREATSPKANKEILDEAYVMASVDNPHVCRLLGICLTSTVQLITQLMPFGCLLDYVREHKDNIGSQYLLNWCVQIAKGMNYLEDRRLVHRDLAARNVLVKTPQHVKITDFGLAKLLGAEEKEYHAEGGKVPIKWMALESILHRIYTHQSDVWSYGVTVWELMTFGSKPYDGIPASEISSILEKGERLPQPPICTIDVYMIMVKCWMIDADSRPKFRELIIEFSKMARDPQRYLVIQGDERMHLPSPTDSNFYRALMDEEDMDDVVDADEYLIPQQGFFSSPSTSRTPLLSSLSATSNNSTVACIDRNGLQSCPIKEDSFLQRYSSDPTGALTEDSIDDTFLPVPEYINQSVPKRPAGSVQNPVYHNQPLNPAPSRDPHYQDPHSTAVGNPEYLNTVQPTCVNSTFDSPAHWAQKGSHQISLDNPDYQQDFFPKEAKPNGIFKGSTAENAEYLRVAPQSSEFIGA

IC50 ([1]; 72 h, first value of A431/MDBK pair, read-out: MTT-72 h A431)	ICW Screen (EGFR)	ICW Re-Test (EGFR)	IC50 [1, 2]	IC50 [1, 4]	Structure (SMILES)	MTT-72 h A431/MDBK (ratio) ([1]; 72 h)	IC50 (MDBK line; 72 h, second value of A431/MDBK pair, read-out: MTT-72 h MDBK)	IC50 (MDBK line; [3])	MTT (10 Point follow-up) ratio [1]	IC50 (MDBK line; [5])	MTT-72 h % Max ([1]; 72 h, maximal effect printed after the ratio)
	35.13	45.57	11 µM		COc1ccc(C(Nc2ccccn2)c2ccc3ccc(C)nc3c2O)cc1OC (stereo not shown) [compound 10006]	1.37		15.1 µM			
	61.2	62.77	3.56 µM	3.53 µM	CCOc1ccc(C(Nc2ccccn2)c2ccc3cccnc3c2O)cc1O (stereo not shown) [compound 10013]	1.80		6.42 µM	1.79	6.32 µM	
	25.99			3.31 µM	Cc1cccc(NC(c2ccccc2F)c2ccc3cccnc3c2O)n1 (stereo not shown) [compound 10015]				0.99	3.28 µM	
	41.45	29.99	25.8 µM		Cc1ccnc(NC(c2ccc(O)cc2)c2ccc3ccc(C)nc3c2O)c1 (stereo not shown) [compound 10016]	1.00		25.8 µM			
	44.27	30.11	3.72 µM	3.52 µM	CCOc1ccc(C(Nc2cc(C)ccn2)c2ccc3cccnc3c2O)cc1OC (stereo not shown) [compound 10017]	0.94		3.51 µM	0.85	2.98 µM	
	33.75		5.35 µM	4.49 µM	Cc1ccccc1C(Nc1ccccn1)c1ccc2cccnc2c1O (stereo not shown) [compound 10019]	0.98		5.25 µM	0.71	3.21 µM	
	37.03	41.06	5.22 µM		Cc1cccc(NC(c2ccccc2C)c2ccc3ccc(C)nc3c2O)n1 (stereo not shown) [compound 10026]	0.97		5.19 µM			
	30.12		5.69 µM		CCCOc1ccc(C(Nc2ccccn2)c2ccc3cccnc3c2O)cc1 (stereo not shown) [compound 10028]	0.95		5.38 µM			
	40.02	35.03	6.46 µM		Cc1ccnc(NC(c2cc(C)ccc2O)c2ccc3cccnc3c2O)c1 (stereo not shown) [compound 10029]	0.84		5.42 µM			
	100.4	99.05			Cc1ccnc(NC(c2ccc3cccnc3c2O)c2sccc2C)c1 (stereo not shown) [compound 10963]	1.98					40%

More lines, now with the values behind:

Structure (SMILES)	IC50 ([1]; 72 h, first value of A431/MDBK pair, read-out: MTT-72 h A431)	ICW Screen (EGFR)	ICW Re-Test (EGFR)	IC50 [1, 2]	IC50 [1, 4]	MTT-72 h A431/MDBK (ratio) ([1]; 72 h)	IC50 (MDBK line; 72 h, second value of A431/MDBK pair, read-out: MTT-72 h MDBK)	IC50 (MDBK line; [3])	MTT (10 Point follow-up) ratio [1]	IC50 (MDBK line; [5])	MTT-72 h % Max ([1]; 72 h, maximal effect printed after the ratio)
CCOc1ccc(NC(c2ccccn2)c2ccc3cccnc3c2O)cc1 (stereo not shown) [compound 1073]	4.83 µM	54.34	38.77			1.53	7.41 µM				
CCOc1cc(C(Nc2ccccn2)c2ccc3cccnc3c2O)ccc1OC (stereo not shown) [compound 1968]		46.48	20.95	7.14 µM		0.86		6.15 µM			
COc1ccc(C(Nc2cc(C)ccn2)c2ccc3cccnc3c2O)cc1OC (stereo not shown) [compound 1969]		29.61	39.58	15 µM		0.90		13.6 µM			
Cc1ccc2ccc(C(Nc3ccccn3)c3cccc(O)c3)c(O)c2n1 (stereo not shown) [compound 1970]		26.33		39.7 µM		0.81		32.4 µM			
COc1cc(C(Nc2cc(C)ccn2)c2ccc3cccnc3c2O)ccc1O (stereo not shown) [compound 1973]		54.76	53.31	14.2 µM		0.53		7.5 µM			
CCOc1ccc(C(Nc2ccccn2)c2ccc3ccc(C)nc3c2O)cc1OC (stereo not shown) [compound 1976]		26.91		26.2 µM		0.50		13 µM			
COc1ccc(C(Nc2cc(C)ccn2)c2ccc3cccnc3c2O)cc1O (stereo not shown) [compound 1978]		63.53	41.95	7.3 µM		1.47		10.7 µM			
COc1ccc(C(Nc2ccccn2)c2ccc3ccc(C)nc3c2O)cc1C (stereo not shown) [compound 1979]		27.02		5.69 µM		0.95		5.38 µM			
CCOc1cc(C(Nc2cc(C)ccn2)c2ccc3cccnc3c2O)ccc1OC (stereo not shown) [compound 1991]		47.06	30.75	9.08 µM		0.79		7.14 µM			
Cc1ccc2ccc(C(Nc3ccccn3)c3ccc(O)cc3)c(O)c2n1 (stereo not shown) [compound 1997]		29		46.8 µM		0.52		24.3 µM			
COc1ccc(C(Nc2cc(C)ccn2)c2ccc3cccnc3c2O)cc1C (stereo not shown) [compound 10005]		43.76	33.76	3.44 µM	3.45 µM	1.07		3.69 µM	1.20	4.14 µM	
